{
  "source": "patent US20160362408A1",
  "about": "(Bayer Pharma Aktiengesellschaft, priority 2013, published 2016)",
  "note": "Counter-ions that a name gives are not always drawn.",
  "data": [
    {"biological_target": "T1, recombinant guanylate cyclase reporter cell line (Rattus norvegicus, UniProt P19686+P20595)", "T1 construct": "expressed in transfected cells", "T1 sequence (P19686 1-690)": "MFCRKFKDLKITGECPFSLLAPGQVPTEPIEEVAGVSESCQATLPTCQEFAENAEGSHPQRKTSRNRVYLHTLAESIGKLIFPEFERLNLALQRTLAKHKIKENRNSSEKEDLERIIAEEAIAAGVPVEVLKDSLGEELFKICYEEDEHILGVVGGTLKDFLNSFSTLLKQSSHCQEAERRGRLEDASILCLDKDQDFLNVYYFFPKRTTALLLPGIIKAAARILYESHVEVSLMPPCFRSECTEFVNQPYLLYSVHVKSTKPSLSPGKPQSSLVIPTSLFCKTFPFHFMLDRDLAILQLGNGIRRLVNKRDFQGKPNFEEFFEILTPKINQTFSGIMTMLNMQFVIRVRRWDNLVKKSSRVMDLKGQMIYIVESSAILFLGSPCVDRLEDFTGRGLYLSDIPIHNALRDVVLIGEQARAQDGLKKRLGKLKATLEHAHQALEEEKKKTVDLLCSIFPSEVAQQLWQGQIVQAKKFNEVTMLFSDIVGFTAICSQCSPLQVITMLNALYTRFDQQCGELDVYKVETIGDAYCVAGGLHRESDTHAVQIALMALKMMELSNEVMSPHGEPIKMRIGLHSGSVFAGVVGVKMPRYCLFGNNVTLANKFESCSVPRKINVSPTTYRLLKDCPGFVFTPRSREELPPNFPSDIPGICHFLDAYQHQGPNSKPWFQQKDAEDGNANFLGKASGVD", "T1 sequence (P20595 1-619)": "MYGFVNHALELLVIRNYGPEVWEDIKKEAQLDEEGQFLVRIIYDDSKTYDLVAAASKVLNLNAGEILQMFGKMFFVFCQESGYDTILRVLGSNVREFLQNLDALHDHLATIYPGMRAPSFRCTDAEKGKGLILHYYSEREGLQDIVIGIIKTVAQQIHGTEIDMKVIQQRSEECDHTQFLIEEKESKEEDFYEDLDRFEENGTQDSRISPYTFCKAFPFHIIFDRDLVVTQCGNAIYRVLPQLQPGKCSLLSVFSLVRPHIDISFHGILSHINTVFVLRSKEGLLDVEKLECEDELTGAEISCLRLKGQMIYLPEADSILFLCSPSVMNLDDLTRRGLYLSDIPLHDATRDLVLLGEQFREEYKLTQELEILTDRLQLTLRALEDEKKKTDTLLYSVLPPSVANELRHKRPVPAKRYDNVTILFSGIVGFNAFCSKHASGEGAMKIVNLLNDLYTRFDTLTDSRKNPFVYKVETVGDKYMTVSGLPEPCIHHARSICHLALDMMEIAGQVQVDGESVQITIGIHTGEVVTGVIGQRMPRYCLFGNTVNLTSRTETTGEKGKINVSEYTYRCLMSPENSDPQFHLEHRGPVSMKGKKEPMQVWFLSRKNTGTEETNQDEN", "test": "Effect on a recombinant guanylate cyclase reporter cell line", "assay_type": "cell-based", "settings": "MEC = minimum effective concentration; in some cases mean values for individual determinations", "description": "B-2. Effect on a Recombinant Guanylate Cyclase Reporter Cell Line\nThe cellular action of the compounds of the invention is determined using a recombinant guanylate cyclase reporter cell line, as described in F. Wunder et al., Anal. Biochem. 339, 104-112 (2005).\nRepresentative MEC values (MEC=minimum effective concentration) for the compounds of the invention are shown in the table below (in some cases as mean values for individual determinations): […]", "units": {"MEC": "µM"}, "values": [
      {"smiles": "Cc1nn(CCO)c(C)c1NC(=O)c1c(C)nc2c(OCc3c(F)cccc3F)cccn12", "note": "[Example 37, 8-[(2,6-difluorobenzyl)oxy]-N-[1-(2-hydroxyethyl)-3,5-dimethyl-1H-pyrazol-4-yl]-2-methylimidazo[1,2-a]pyridine-3-carboxamide]", "MEC": 0.3},
      {"smiles": "CCn1nc(C)c(NC(=O)c2c(C)nc3c(OCc4c(F)cccc4F)cccn23)c1C", "note": "[Example 38, 8-[(2,6-Difluorobenzyl)oxy]-N-(1-ethyl-3,5-dimethyl-1H-pyrazol-4-yl)-2-methylimidazo[1,2-a]pyridine-3-carboxamide]", "MEC": 1.0},
      {"smiles": "Cc1noc(C)c1NC(=O)c1c(C)nc2c(OCc3c(F)cccc3F)cc(Cl)cn12", "note": "[Example 39, 6-Chloro-8-[(2,6-difluorobenzyl)oxy]-N-(3,5-dimethyl-1,2-oxazol-4-yl)-2-methylimidazo[1,2-a]pyridine-3-carboxamide]", "MEC": 1.0},
      {"smiles": "Cc1n[nH]c(C(F)(F)F)c1NC(=O)c1c(C)nc2c(OCc3c(F)cccc3F)cc(Cl)cn12", "note": "[Example 40, 6-chloro-8-[(2,6-difluorobenzyl)oxy]-2-methyl-N-[3-methyl-5-(trifluoromethyl)-1H-pyrazol-4-yl]imidazo[1,2-a]pyridine-3-carboxamide]", "MEC": 0.03},
      {"smiles": "Cc1n[nH]c(C)c1NC(=O)c1c(C)nc2c(OCc3c(F)cccc3F)cc(Cl)cn12", "note": "[Example 41, 6-chloro-8-[(2,6-difluorobenzyl)oxy]-N-(3,5-dimethyl-1H-pyrazol-4-yl)-2-methylimidazo[1,2-a]pyridine-3-carboxamide]", "MEC": 0.1},
      {"smiles": "Cc1nn(CCO)c(C)c1NC(=O)c1c(C)nc2c(OCc3c(F)cccc3F)cc(Cl)cn12", "note": "[Example 42, 6-chloro-8-[(2,6-difluorobenzyl)oxy]-N-[1-(2-hydroxyethyl)-3,5-dimethyl-1H-pyrazol-4-yl]-2-methylimidazo[1,2-a]pyridine-3-carboxamide]", "MEC": 0.1},
      {"smiles": "Cc1nn(CC(F)(F)F)c(C)c1NC(=O)c1c(C)nc2c(OCc3c(F)cccc3F)cc(Cl)cn12", "note": "[Example 43, 6-chloro-8-[(2,6-difluorobenzyl)oxy]-N-[3,5-dimethyl-1-(2,2,2-trifluoroethyl)-1H-pyrazol-4-yl]-2-methylimidazo[1,2-a]pyridine-3-carboxamide]", "MEC": 0.03},
      {"smiles": "Cc1nc2c(OCc3c(F)cccc3F)cc(Cl)cn2c1C(=O)Nc1cnn(CC(F)(F)F)c1", "note": "[Example 44, 6-chloro-8-[(2,6-difluorobenzyl)oxy]-2-methyl-N-[1-(2,2,2-trifluoroethyl)-1H-pyrazol-4-yl]imidazo[1,2-a]pyridine-3-carboxamide]", "MEC": 1.0},
      {"smiles": "Cc1nc2c(OCc3c(F)cccc3F)cc(Cl)cn2c1C(=O)Nc1cnn(C(C)C)c1", "note": "[Example 45, 6-chloro-8-[(2,6-difluorobenzyl)oxy]-N-(1-isopropyl-1H-pyrazol-4-yl)-2-methylimidazo[1,2-a]pyridine-3-carboxamide]", "MEC": 0.3},
      {"smiles": "Cc1nc2c(OCc3c(F)cccc3F)cc(Cl)cn2c1C(=O)Nc1cnn(CCO)c1", "note": "[Example 46, 6-chloro-8-[(2,6-difluorobenzyl)oxy]-N-[1-(2-hydroxyethyl)-1H-pyrazol-4-yl]-2-methylimidazo[1,2-a]pyridine-3-carboxamide]", "MEC": 0.1},
      {"smiles": "Cc1nc2c(OCc3c(F)cccc3F)cc(Cl)cn2c1C(=O)Nc1cn[nH]c1C", "note": "[Example 47, 6-chloro-8-[(2,6-difluorobenzyl)oxy]-2-methyl-N-(5-methyl-1H-pyrazol-4-yl)imidazo[1,2-a]pyridine-3-carboxamide + 6-chloro-8-[(2,6-difluorobenzyl)oxy]-2-methyl-N-(3-methyl-1H-pyrazol-4-yl)imidazo[1,2-a]pyridine-3-carboxamide]", "MEC": 0.3},
      {"smiles": "Cc1n[nH]c(C)c1NC(=O)c1c(C)nc2c(OCc3c(F)cccc3F)cc(F)cn12", "note": "[Example 48, 8-[(2,6-Difluorobenzyl)oxy]-N-(3,5-dimethyl-1H-pyrazol-4-yl)-6-fluoro-2-methylimidazo[1,2-a]pyridine-3-carboxamide]", "MEC": 0.3},
      {"smiles": "Cc1n[nH]c(C)c1NC(=O)c1c(C)nc2c(OCC3CCCCC3)cccn12", "note": "[Example 49, 8-(cyclohexylmethoxy)-N-(3,5-dimethyl-1H-pyrazol-4-yl)-2-methylimidazo[1,2-a]pyridine-3-carboxamide]", "MEC": 0.1},
      {"smiles": "Cc1n[nH]c(C)c1NC(=O)c1c(C)nc2c(OCc3c(F)cccc3F)cc(N3CCCC3)cn12", "note": "[Example 50, 8-[(2,6-difluorobenzyl)oxy]-N-(3,5-dimethyl-1H-pyrazol-4-yl)-2-methyl-6-(pyrrolidin-1-yl)imidazo[1,2-a]pyridine-3-carboxamide]", "MEC": 1.0},
      {"smiles": "Cc1n[nH]c(C)c1NC(=O)c1c(C)nc2c(OCc3c(F)cccc3F)cc(N3CCOCC3)cn12", "note": "[Example 51, 8-[(2,6-difluorobenzyl)oxy]-N-(3,5-dimethyl-1H-pyrazol-4-yl)-2-methyl-6-(morpholin-4-yl)imidazo[1,2-a]pyridine-3-carboxamide]", "MEC": 1.0},
      {"smiles": "Cc1cc(OCc2c(F)cccc2F)c2nc(C)c(C(=O)Nc3c(C)n[nH]c3C)n2c1", "note": "[Example 52, 8-[(2,6-difluorobenzyl)oxy]-N-(3,5-dimethyl-1H-pyrazol-4-yl)-2,6-dimethylimidazo[1,2-a]pyridine-3-carboxamide]", "MEC": 0.65},
      {"smiles": "Cc1n[nH]c(C)c1NC(=O)c1c(C)nc2c(OCc3cccc(F)c3F)cc(Cl)cn12", "note": "[Example 53, 6-chloro-8-[(2,3-difluorobenzyl)oxy]-N-(3,5-dimethyl-1H-pyrazol-4-yl)-2-methylimidazo[1,2-a]pyridine-3-carboxamide]", "MEC": 1.0},
      {"smiles": "Cc1nc2c(OCc3c(F)cccc3F)cccn2c1C(=O)Nc1ccnc2ccc(F)cc12", "note": "[Example 54, 8-[(2,6-Difluorobenzyl)oxy]-N-(6-fluoroquinolin-4-yl)-2-methylimidazo[1,2-a]pyridine-3-carboxamide]", "MEC": 0.03},
      {"smiles": "Cc1nc2c(OCc3c(F)cccc3F)cccn2c1C(=O)Nc1c(-c2ccccc2)noc1C", "note": "[Example 55, 8-[(2,6-Difluorobenzyl)oxy]-2-methyl-N-(5-methyl-3-phenyl-1,2-oxazol-4-yl)imidazo[1,2-a]pyridine-3-carboxamide]", "MEC": 1.0},
      {"smiles": "Cc1nc2c(OCc3c(F)cccc3F)cccn2c1C(=O)Nc1cccc2ccccc12", "note": "[Example 56, 8-[(2,6-difluorobenzyl)oxy]-2-methyl-N-(naphthalen-1-yl)imidazo[1,2-a]pyridine-3-carboxamide]", "MEC": 0.1},
      {"smiles": "Cc1nn(C)c(C)c1NC(=O)c1c(C)nc2c(OCc3c(F)cccc3F)cccn12", "note": "[Example 57, 8-[(2,6-Difluorobenzyl)oxy]-2-methyl-N-(1,3,5-trimethyl-1H-pyrazol-4-yl)imidazo[1,2-a]pyridine-3-carboxamide]", "MEC": 3.0},
      {"smiles": "Cc1cccc(C)c1NC(=O)c1c(C)nc2c(OCc3c(F)cccc3F)cccn12", "note": "[Example 58, 8-[(2,6-difluorobenzyl)oxy]-N-(2,6-dimethylphenyl)-2-methylimidazo[1,2-a]pyridine-3-carboxamide]", "MEC": 0.3},
      {"smiles": "Cc1nc2c(OCc3c(F)cccc3F)cccn2c1C(=O)Nc1nccc2ccccc12", "note": "[Example 59, 8-[(2,6-difluorobenzyl)oxy]-N-(isoquinolin-1-yl)-2-methylimidazo[1,2-a]pyridin-3-carboxamide trifluoroacetate]", "MEC": 1.0},
      {"smiles": "Cc1nc2c(OCc3c(F)cccc3F)cccn2c1C(=O)Nc1cccc2cccc(Cl)c12", "note": "[Example 60, N-(8-Chloronaphthalen-1-yl)-8-[(2,6-difluorobenzyl)oxy]-2-methylimidazo[1,2-a]pyridine-3-carboxamide trifluoroacetate]", "MEC": 0.3},
      {"smiles": "Cc1nc2c(OCc3c(F)cccc3F)cccn2c1C(=O)Nc1cccc2cc(Cl)ccc12", "note": "[Example 61]", "MEC": 0.3},
      {"smiles": "Cc1nc2c(OCc3c(F)cccc3F)cccn2c1C(=O)Nc1ccc(Cl)c2ccccc12", "note": "[Example 62]", "MEC": 1.0},
      {"smiles": "Cc1ccc2c(NC(=O)c3c(C)nc4c(OCc5c(F)cccc5F)cccn34)c(C)ccc2n1", "note": "[Example 63]", "MEC": 0.3}
    ]}
  ]
}
